Reference: patent US6391576B1, “Method for isolating a microbe” (Japan Bioindustry Association, priority 1999, dated 2002)

Test system: microorganisms in the activated sludge
Assay: Colony formation on NUTRIENT BROTH agar plates inoculated with activated sludge cell dispersion
Format: cell-based
Settings: 30° C.; for Growth of the microorganisms in the activated sludge (in words): 0.1 w/w % on plate
Description: Ten ml of activated sludge obtained from a food manufacturer's factory were filtered through gauze. The filtered activated sludge was stirred, subjected to ultra-sonics, added with a saline solution, and further stirred to allow cells to disperse well in the filtered activated sludge. The cell dispersion was diluted with a saline solution to 3×10^4 cells/ml as determined by staining with 6-carboxy-fluorescein diacetate (J. Porter et al. J. Appl. Bacteriol., Vol. 79, 399-408 (1995)).
The medium used was NUTRIENT BROTH (DIFICO), an 1:3 mixture of Bact Beef® and Bact Peptone®) added with 0.2% glucose and 2% agar. The medium was heat-sterilized and allowed to coagulate in plates. The plates were added with 0.1 w/w % of the compound shown in Table 3 and inoculated with 0.1 ml of the cell dispersion solution, and incubated at 30° C. After 2 or 10 days incubation, the number of colonies formed on the plates was counted.

[1] = 0.1 w/w % cyclodextrin compound on plate, 0.1 ml cell dispersion
[2] = 0.1 w/w % polysaccharide on plate

Molecule | Colony/plate formed after incubation of 2 days [1] | Colony/plate formed after incubation of 10 days [1] | Growth of the microorganisms in the activated sludge (in words) | Colony/plate formed after incubation of 2 days [2] | Colony/plate formed after incubation of 10 days [2]
2-Hydroxypropyl-β-cyclodextrin | 270 Colony/plate | 710 Colony/plate | promoted the growth |  | 
COC[C@H]1O[C@@H]2O[C@H]3[C@H](OC)[C@@H](OC)[C@@H](O[C@H]4[C@H](OC)[C@@H](OC)[C@@H](O[C@H]5[C@H](OC)[C@@H](OC)[C@@H](O[C@H]6[C@H](OC)[C@@H](OC)[C@@H](O[C@H]7[C@H](OC)[C@@H](OC)[C@@H](O[C@H]8[C@H](OC)[C@@H](OC)[C@@H](O[C@H]1[C@H](OC)[C@H]2OC)O[C@@H]8COC)O[C@@H]7COC)O[C@@H]6COC)O[C@@H]5COC)O[C@@H]4COC)O[C@@H]3COC [2,3,6-Tri-O-methyl-β-cyclodextrin] | 220 Colony/plate | 650 Colony/plate | promoted the growth |  | 
COC[C@H]1O[C@@H]2O[C@H]3[C@H](O)[C@@H](OC)[C@@H](O[C@H]4[C@H](O)[C@@H](OC)[C@@H](O[C@H]5[C@H](O)[C@@H](OC)[C@@H](O[C@H]6[C@H](O)[C@@H](OC)[C@@H](O[C@H]7[C@H](O)[C@@H](OC)[C@@H](O[C@H]8[C@H](O)[C@@H](OC)[C@@H](O[C@H]1[C@H](O)[C@H]2OC)O[C@@H]8COC)O[C@@H]7COC)O[C@@H]6COC)O[C@@H]5COC)O[C@@H]4COC)O[C@@H]3COC [2,6-Di-O-methyl-β-cyclodextrin] | 520 Colony/plate | 1,060 Colony/plate | promoted the growth |  | 
OC[C@H]1O[C@@H]2O[C@H]3[C@H](O)[C@@H](O)[C@@H](O[C@H]4[C@H](O)[C@@H](O)[C@@H](O[C@H]5[C@H](O)[C@@H](O)[C@@H](O[C@H]6[C@H](O)[C@@H](O)[C@@H](O[C@H]7[C@H](O)[C@@H](O)[C@@H](O[C@H]1[C@H](O)[C@H]2O)O[C@@H]7CO)O[C@@H]6CO)O[C@@H]5CO)O[C@@H]4CO)O[C@@H]3CO [α-Cyclodextrin] | 120 Colony/plate | 320 Colony/plate |  |  | 
OC[C@H]1O[C@@H]2O[C@H]3[C@H](O)[C@@H](O)[C@@H](O[C@H]4[C@H](O)[C@@H](O)[C@@H](O[C@H]5[C@H](O)[C@@H](O)[C@@H](O[C@H]6[C@H](O)[C@@H](O)[C@@H](O[C@H]7[C@H](O)[C@@H](O)[C@@H](O[C@H]8[C@H](O)[C@@H](O)[C@@H](O[C@H]1[C@H](O)[C@H]2O)O[C@@H]8CO)O[C@@H]7CO)O[C@@H]6CO)O[C@@H]5CO)O[C@@H]4CO)O[C@@H]3CO [β-Cyclodextrin] | 105 Colony/plate | 350 Colony/plate |  |  | 
OC[C@H]1O[C@@H]2O[C@H]3[C@H](O)[C@@H](O)[C@@H](O[C@H]4[C@H](O)[C@@H](O)[C@@H](O[C@H]5[C@H](O)[C@@H](O)[C@@H](O[C@H]6[C@H](O)[C@@H](O)[C@@H](O[C@H]7[C@H](O)[C@@H](O)[C@@H](O[C@H]8[C@H](O)[C@@H](O)[C@@H](O[C@H]9[C@H](O)[C@@H](O)[C@@H](O[C@H]1[C@H](O)[C@H]2O)O[C@@H]9CO)O[C@@H]8CO)O[C@@H]7CO)O[C@@H]6CO)O[C@@H]5CO)O[C@@H]4CO)O[C@@H]3CO [γ-Cyclodextrin] | 210 Colony/plate | 640 Colony/plate | promoted the growth |  | 
Cellulose |  |  |  | 244 Colony/plate | 685 Colony/plate
Curdlan |  |  |  | 220 Colony/plate | 745 Colony/plate
Dextran |  |  |  | 146 Colony/plate | 350 Colony/plate
Glucomannan |  |  |  | 190 Colony/plate | 650 Colony/plate
Glycogen |  |  |  | 210 Colony/plate | 830 Colony/plate
Pullulan |  |  |  | 180 Colony/plate | 600 Colony/plate
